Data reported in PMC12432892, “Therapeutic applications of interface-mimicking peptides for targeting the SARS-CoV-2 NSP12-NSP8 RdRp complex” (Molecular Therapy, 2025).

Experiments:
[1] = biological target: T1, NSP12-NSP8-NSP7 complex (Severe acute respiratory syndrome coronavirus 2, UniProt P0DTD1); assay type: binding, SARS-CoV-2; details: for KD of the NSP8-NSP7-RNA ligand complex to NSP12 in the presence of the peptide: MST, labeled NSP12 20 nM, PBS with Tween 20, mean ± SD, more than three independent analyses, no-peptide Ctrl 11.9-12.9 nM
T1 construct: made in house; host or cells: NSP12: baculovirus in Hifive insect cells; NSP7 and NSP8: E. coli BL21(DE3), pET-11

[2] = in vitro; assay type: cell-based; details: Vero-E6 cells, MTT, 40 μM peptide, read-out: cell viability
Experimental: (§1) The cytotoxicity of test samples was assessed in Vero-E6 cells using the MTT assay, following the manufacturer’s protocol for the CellTiter 96 Non-radioactive Cell Proliferation Assay (Promega). Briefly, […] cells were seeded in 96-well plates at a density of 2 × 10^4 cells per well and incubated for 24 h. Following this, cells were treated with test samples at concentrations ranging from 0.2 to 40 μM and incubated for an additional 24 h. After incubation, 15 μL of MTT reagent (dye solution) was added to each well, and the cells were further incubated for 4 h. Subsequently, 100 μL of solubilization/stop solution was added to dissolve the formazan crystals. The optical density was measured at 570 nm, and statistical significance was determined by comparing the results to those of the mock-treated cells. […]
(§2) Figure S5. MTT assay of peptides including scrambled version
(§3) Vero-E6 cells were treated with NSP8-based peptides at concentrations ranging from 0.2 to 40 μM and incubated for an additional 24 hours. Cytotoxicity was evaluated using the MTT assay to assess the impact of the peptides on cell viability. According to IOS 10993-5 guidelines, cell […]
(§4) moderate cytotoxicity, and below 40% signifies strong cytotoxicity. […]

[3] = tested on: Vero-E6 cells; assay: in vitro; assay type: cell-based; details: MTT, 24 h
Experimental: as §1, §2, §3, §4

[4] = tested on: wild-type ancestral SARS-CoV-2 L-clade strain; assay type: cell-based
[5] = Plasma stability; assay type: in vitro ADME; details: mouse plasma (ICR, male, K2-EDTA), LC-MS/MS; for Plasma Stability Half-life / time to complete loss of detectable peptide in plasma: 10 μM; for Plasma Stability Half-life / half-life at 10 μM: 37°C, 0, 20, 40, 60, 120 min, duplicate (n = 2); for time to complete loss of detectable peptide in plasma: 37°C, n = 2
Experimental: Plasma stability of the peptides was evaluated using mouse plasma (ICR, male, K2-EDTA) purchased from Innovative Research. Each peptide (10 μM final concentration) was incubated at 37°C for 0, 20, 40, 60, and 120 min. Samples were processed and analyzed by LC-MS/MS, as described above. Procaine was used as a positive control.
(§5) All in vitro stability experiments were performed in duplicate (n = 2). Since the standard deviation was less than 20% in all cases, no additional replicates were conducted.

[6] = Liver microsomal stability; assay type: in vitro ADME, mouse; details: for Metabolic Stability Evaluation: classified based on in vivo CL_int values (footnote of Table S3); for half-life at 10 μM / remaining at 1 h, 10 μM / microsomal CLint at 10 μM: mouse liver microsomes (CD-1, pooled), 37°C; for half-life at 10 μM: NADPH, 0, 5, 15, 30, 60 min, duplicate (n = 2); for half-life at 10 μM / remaining at 1 h, 10 μM: LC-MS/MS; for remaining at 1 h, 10 μM / microsomal CLint at 10 μM: NADPH; for remaining at 1 h, 10 μM: n = 2, read-out: Microsomal Stability Remaining at 60 min; for microsomal CLint at 10 μM: calculated from the depletion rate, read-out: CL_int, microsomal; for CL_int, in vivo: scaled from microsomal CL_int to in vivo liver clearance using established mouse parameters
Experimental: Reactions were quenched and peptide concentrations were quantified using liquid chromatography-tandem mass spectrometry (LC-MS/MS) (AB Sciex QTRAP 6500+, Analyst software version 1.7.2). Clearance and half-life were calculated by non-compartmental analysis, and values were converted to hepatic clearance (CLint, liver) using standard scaling factors.
as §5

[7] = concentrations between 20 and 40 μM

Compound | KD of the NSP8-NSP7-RNA ligand complex to NSP12 in the presence of the peptide [1] [nM] | viability at 24 h, 40 µM [2] [%] | cytotoxicity (ISO 10993-5) ([3]; at 40 μM) | viral replication (infectious virus titers, TCID50), in words [4] | Plasma Stability Half-life [5] | time to complete loss of detectable peptide in plasma [5] [min] | half-life at 10 μM [5] [min] | Metabolic Stability Evaluation [6] | half-life at 10 μM [6] [min] | remaining at 1 h, 10 μM [6] [%] | microsomal CLint at 10 μM [6] [µL/min/mg] | CL_int, in vivo [6] [mL/min/kg] | peptide aggregation in the MST assay ([1]; PBS with Tween 20 buffer, peptide 24 μM) | cytotoxicity (ISO 10993-5) [3, 7]
Ac-YGRKKRRQRRRGSGINVDAPMNNAGLKLTIRPCLTVIVNANIL-NH2 [N8-Pepβ_sc] | 14.2 ± 0.9 |  |  |  |  |  |  |  |  |  |  |  |  | 
CC[C@H](C)[C@@H]1NC(=O)[C@H](CC(N)=O)NC(=O)[C@H](CC(N)=O)NC(=O)[C@H](CC(C)C)NC(=O)[C@H](C)NC(=O)[C@H](CC(=O)O)NC(=O)[C@H](CC(N)=O)NC(=O)[C@@H](NC(C)=O)CSSC[C@@H](C(=O)NCC(=O)N[C@@H](CCCNC(=N)N)C(=O)N[C@@H](CCCCN)C(=O)N[C@@H](CCCCN)C(=O)N[C@@H](CCCNC(=N)N)C(=O)N[C@@H](CCCNC(=N)N)C(=O)N[C@@H](CCC(N)=O)C(=O)N[C@@H](CCCNC(=N)N)C(=O)N[C@@H](CCCNC(=N)N)C(=O)N[C@@H](CCCNC(=N)N)C(=O)N2CCC[C@H]2C(=O)N[C@@H](CCC(N)=O)C(N)=O)NC(=O)[C@H](C)NC(=O)[C@H]([C@@H](C)O)NC(=O)[C@H]([C@@H](C)O)NC(=O)[C@H](CC(C)C)NC(=O)[C@@H]2CCCN2C(=O)[C@H]([C@@H](C)CC)NC(=O)[C@H]([C@@H](C)CC)NC(=O)[C@H](CC(N)=O)NC(=O)[C@H](CC(C)C)NC(=O)[C@@H]2CCCN2C(=O)[C@H](C(C)C)NC(=O)[C@H](CS)NC(=O)CNC(=O)[C@H](CC(=O)O)NC(=O)[C@H](CCCNC(=N)N)NC(=O)[C@H](C)NC(=O)[C@H](CC(N)=O)NC(=O)[C@H](CC(N)=O)NC(=O)[C@H]([C@@H](C)CC)NC1=O [N8-Pepα_cyc] |  | > 80 | no cytotoxicity (cell viability above 80% indicates no cytotoxicity) | strongest antiviral effects | approximately 3 min | ≤ 20 | 3 | High metabolism | 23.3 | 14.9 | 59.6 | 234.7 |  | 
CC[C@H](C)[C@H](NC(=O)[C@H](CC(N)=O)NC(=O)[C@H](CC(N)=O)NC(=O)[C@H](CC(C)C)NC(=O)[C@H](C)NC(=O)[C@H](CC(=O)O)NC(=O)[C@H](CC(N)=O)NC(C)=O)C(=O)N[C@H](C(=O)N[C@@H](CC(N)=O)C(=O)N[C@@H](CC(N)=O)C(=O)N[C@@H](C)C(=O)N[C@@H](CCCNC(=N)N)C(=O)N[C@@H](CC(=O)O)C(=O)NCC(=O)N[C@@H](CS)C(=O)N[C@H](C(=O)N1CCC[C@H]1C(=O)N[C@@H](CC(C)C)C(=O)N[C@@H](CC(N)=O)C(=O)N[C@H](C(=O)N[C@H](C(=O)N1CCC[C@H]1C(=O)N[C@@H](CC(C)C)C(=O)N[C@H](C(=O)N[C@H](C(=O)N[C@@H](C)C(=O)NCC(=O)N[C@@H](CCCNC(=N)N)C(=O)N[C@@H](CCCCN)C(=O)N[C@@H](CCCCN)C(=O)N[C@@H](CCCNC(=N)N)C(=O)N[C@@H](CCCNC(=N)N)C(=O)N[C@@H](CCC(N)=O)C(=O)N[C@@H](CCCNC(=N)N)C(=O)N[C@@H](CCCNC(=N)N)C(=O)N[C@@H](CCCNC(=N)N)C(=O)N1CCC[C@H]1C(=O)N[C@@H](CCC(N)=O)C(N)=O)[C@@H](C)O)[C@@H](C)O)[C@@H](C)CC)[C@@H](C)CC)C(C)C)[C@@H](C)CC [N8-Pepα] |  | > 80 | no cytotoxicity (cell viability above 80% indicates no cytotoxicity) | strongest antiviral effects | approximately 3 min | ≤ 20 | 3 | High metabolism | 9.2 | 0 | 151 | 594.7 |  | 
Ac-YGRKKRRQRRRGSGVVIPKIDLAAPNLMDLVPCRIATTG-NH2 [N8-PepβD_sc] |  |  |  |  |  |  |  |  |  |  |  |  | could not be determined due to peptide aggregation | 
Ac-INRNLTVPNICTPGILINADANADLNGRKKRRQRRRPQ-NH2 [N8-Pepα_sc] | 14.3 ± 1.0 |  |  |  |  |  |  |  |  |  |  |  |  | 
CC[C@H](C)[C@H](NC(=O)[C@H](CC(N)=O)NC(=O)[C@H](CC(C)C)NC(=O)[C@@H]1CCCN1C(=O)[C@@H](NC(=O)[C@H](CS)NC(=O)CNC(=O)[C@H](CC(=O)O)NC(=O)[C@H](CCCNC(=N)N)NC(=O)[C@H](C)NC(=O)CNC(=O)[C@H](CO)NC(=O)CNC(=O)[C@H](CCCNC(=N)N)NC(=O)[C@H](CCCNC(=N)N)NC(=O)[C@H](CCCNC(=N)N)NC(=O)[C@H](CCC(N)=O)NC(=O)[C@H](CCCNC(=N)N)NC(=O)[C@H](CCCNC(=N)N)NC(=O)[C@H](CCCCN)NC(=O)[C@H](CCCCN)NC(=O)[C@H](CCCNC(=N)N)NC(=O)CNC(=O)[C@H](Cc1ccc(O)cc1)NC(C)=O)C(C)C)C(=O)N[C@H](C(=O)N1CCC[C@H]1C(=O)N[C@@H](CC(C)C)C(=O)N[C@H](C(=O)N[C@H](C(=O)N[C@@H](C)C(=O)N[C@@H](C)C(=O)N[C@@H](CCCCN)C(=O)N[C@@H](CC(C)C)C(=O)N[C@@H](CCSC)C(=O)N[C@H](C(=O)N[C@H](C(=O)N[C@H](C(=O)N1CCC[C@H]1C(=O)N[C@@H](CC(=O)O)C(N)=O)[C@@H](C)CC)C(C)C)C(C)C)[C@@H](C)O)[C@@H](C)O)[C@@H](C)CC [N8-PepβD] |  |  |  |  | approximately 3 min | ≤ 20 | 3 | High metabolism | 17.8 | 7.8 | 77.9 | 306.7 |  | weak cytotoxicity (80%-60% suggests weak cytotoxicity)
CC[C@H](C)[C@H](NC(=O)[C@H](CC(N)=O)NC(=O)[C@H](CC(N)=O)NC(=O)[C@H](CC(C)C)NC(=O)CNC(=O)[C@H](CO)NC(=O)CNC(=O)[C@H](CCCNC(=N)N)NC(=O)[C@H](CCCNC(=N)N)NC(=O)[C@H](CCCNC(=N)N)NC(=O)[C@H](CCC(N)=O)NC(=O)[C@H](CCCNC(=N)N)NC(=O)[C@H](CCCNC(=N)N)NC(=O)[C@H](CCCCN)NC(=O)[C@H](CCCCN)NC(=O)[C@H](CCCNC(=N)N)NC(=O)CNC(=O)[C@H](Cc1ccc(O)cc1)NC(C)=O)C(=O)N[C@H](C(=O)N[C@@H](CC(N)=O)C(=O)N[C@@H](CC(N)=O)C(=O)N[C@@H](C)C(=O)N[C@@H](CCCNC(=N)N)C(=O)N[C@@H](CC(=O)O)C(=O)NCC(=O)N[C@@H](CS)C(=O)N[C@H](C(=O)N1CCC[C@H]1C(=O)N[C@@H](CC(C)C)C(=O)N[C@@H](CC(N)=O)C(=O)N[C@H](C(=O)N[C@H](C(=O)N1CCC[C@H]1C(=O)N[C@@H](CC(C)C)C(=O)N[C@H](C(=O)N[C@H](C(=O)N[C@@H](C)C(=O)N[C@@H](C)C(=O)N[C@@H](CCCCN)C(=O)N[C@@H](CC(C)C)C(=O)N[C@@H](CCSC)C(=O)N[C@H](C(=O)N[C@H](C(N)=O)C(C)C)C(C)C)[C@@H](C)O)[C@@H](C)O)[C@@H](C)CC)[C@@H](C)CC)C(C)C)[C@@H](C)CC [N8-Pepβ] |  |  |  |  | approximately 3 min | ≤ 20 | 3 | High metabolism | 9.8 | 15.1 | 142 | 559.2 |  | weak cytotoxicity (80%-60% suggests weak cytotoxicity)
